Assay results: patent EP0927179B1, “SUBSTITUTED BENZOCYCLOHEPTAPYRIDINE DERIVATIVES USEFUL FOR INHIBITION OF FARNESYL PROTEIN TRANSFERASE” (SCHERING CORPORATION, priority 1996, dated 1998)

Columns and labels:
[1] = target: T1, farnesyl protein transferase (Homo sapiens, UniProt P49354+P49356); test: FPT IC50 (H-ras), inhibition of farnesyl protein transferase, in vitro enzyme assay; format: biochemical
Procedure: (§1) FPT IC50 (inhibition of farnesyl protein transferase, in vitro enzyme assay) and COS Cell IC50 (Cell-Based Assay) were determined following the assay procedures described in WO 95/10516, published April 20, 1995. GGPT IC50 (inhibition of geranylgeranyl protein transferase, in vitro enzyme assay), Cell Mat Assay, and anti-tumor activity (in vivo anti-tumor studies) could be determined by the assay procedures described in WO 95/10516. The disclosure of WO 95/10516 is incorporated herein by reference thereto.

[2] = target: T1, farnesyl protein transferase; test: FPT IC50 (K-ras), inhibition of farnesyl protein transferase, in vitro enzyme assay; format: biochemical
Procedure: as §1

COS Cell = COS Cell IC50 (Cell-Based Assay)
Procedure: as §1

Human tumor cells = test: Soft Agar Assay (anchorage-independent growth); format: cell-based
Procedure: Anchorage-independent growth is a characteristic of tumorigenic cell lines. Human tumor cells are suspended in growth medium containing 0.3% agarose and an indicated concentration of a farnesyl transferase inhibitor. The solution is overlayed onto growth medium solidified with 0.6% agarose containing the same concentration of farnesyl transferase inhibitor as the top layer. After the top layer is solidified, plates are incubated for 10-16 days at 37°C under 5% CO2 to allow colony outgrowth. After incubation, the colonies are stained by overlaying the agar with a solution of MTT (3-[4,5-dimethyl-thiazol-2-yl]-2,5-diphenyltetrazolium bromide, Thiazolyl blue) (1 mg/mL in PBS). Colonies can be counted and the IC50's can be determined.

T1 sequence (P49356 whole entry, one chain of several): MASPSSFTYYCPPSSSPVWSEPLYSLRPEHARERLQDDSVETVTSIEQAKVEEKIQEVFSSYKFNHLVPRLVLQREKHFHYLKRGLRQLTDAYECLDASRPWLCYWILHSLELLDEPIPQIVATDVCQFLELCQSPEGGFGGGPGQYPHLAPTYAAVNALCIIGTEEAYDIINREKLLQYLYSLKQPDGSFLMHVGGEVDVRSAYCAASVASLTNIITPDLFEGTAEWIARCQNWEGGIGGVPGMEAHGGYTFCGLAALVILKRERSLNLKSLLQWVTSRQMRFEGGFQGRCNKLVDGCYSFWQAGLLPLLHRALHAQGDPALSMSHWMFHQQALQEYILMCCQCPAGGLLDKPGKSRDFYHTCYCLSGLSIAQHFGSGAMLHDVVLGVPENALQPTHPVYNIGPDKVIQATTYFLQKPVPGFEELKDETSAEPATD

`Cn1cnc(S(=O)(=O)N2CCC(CC(=O)N3CCC([C@H]4c5ncc(Br)cc5CCc5cc(Cl)cc(Br)c54)CC3)CC2)c1` [Example 14] showed an IC50 [1] of 5.7 nM and an IC50 [2] of 23 nM.
In the case of `NS(=O)(=O)N1CCC(CC(=O)N2CCN(C3c4ccc(Cl)cc4CCc4cc(Br)cnc43)CC2)CC1` (stereo not shown) [Example 16], the IC50 [1] is reported as 80 nM.
Work on `CN(C)S(=O)(=O)N1CCC(CC(=O)N2CCC([C@H]3c4ncc(Br)cc4CCc4cc(Cl)cc(Br)c43)CC2)CC1` [Example 3] yielded an IC50 [1] of 7.3 nM, an IC50 (COS Cell) of 9 nM and an IC50 (Human tumor cells) of 100 nM. The IC50 [2] was 10 nM.
For `O=C(CC1CCN(S(=O)(=O)c2cccs2)CC1)N1CCC([C@H]2c3ncc(Br)cc3CCc3cc(Cl)cc(Br)c32)CC1` [Example 13], the IC50 [1] was 20 nM.
`CC1(C)C2CCC1(CS(=O)(=O)N1CCC(CC(=O)N3CCC([C@H]4c5ncc(Br)cc5CCc5cc(Cl)cc(Br)c54)CC3)CC1)C(=O)C2` (stereo partly shown) [Example 11] gave an IC50 [1] of 34.8 nM.
`O=C(CC1CCN(S(=O)(=O)c2ccccc2)CC1)N1CCC([C@H]2c3ncc(Br)cc3CCc3cc(Cl)cc(Br)c32)CC1` [Example 1] was tested, and the IC50 [1] was 72 nM.
With `O=C(CC1CCN(S(=O)(=O)Cc2ccccc2)CC1)N1CCC([C@H]2c3ncc(Br)cc3CCc3cc(Cl)cc(Br)c32)CC1` [Example 9] the IC50 (COS Cell) was 350 nM.
Work on `CS(=O)(=O)N1CCC(CC(=O)N2CCN(C3c4ccc(Cl)cc4CCc4cc(Br)cnc43)CC2)CC1` (stereo not shown) [Example 15] yielded an IC50 [1] of 54 nM.
`CS(=O)(=O)N1CCC(CC(=O)N2CCC([C@H]3c4ncc(Br)cc4CCc4cc(Cl)cc(Br)c43)CC2)CC1` [Example 2] was tested, and the IC50 (Human tumor cells) was 50 nM.
In the case of `O=C(CC1CCN(S(=O)(=O)c2ccc(-c3ccccn3)s2)CC1)N1CCC([C@H]2c3ncc(Br)cc3CCc3cc(Cl)cc(Br)c32)CC1` [Example 12], the inhibition at […] ([1]; @73 nM, read-out: FPT inhibition (H-ras) at a single concentration) is reported as 34%.
Compound `CCCS(=O)(=O)N1CCC(CC(=O)N2CCC([C@H]3c4ncc(Br)cc4CCc4cc(Cl)cc(Br)c43)CC2)CC1` [Example 7] has an IC50 (COS Cell) of 30 nM and an IC50 (Human tumor cells) of 250 nM.
